# Test results taken from patent US6159940A, “Method for modulating hemopoiesis” (Immunotech Developments Inc., priority 1999, dated 2000).
# Tests used:
# [1] = Local irritating effect, guinea pigs; assay type: in vivo
# From the text: The local irritating effect of H-Ile-Glu-Trp-OH was studied in 20 guinea pigs and 5 rabbits.
# [2] = Chronic toxicity: peritheric blood and internals, 30 days, rabbits; assay type: in vivo; details: once daily for 30 days
# Method: II.1 The H-Ile-Glu-Trp-OH effect on the composition and properties of the peritheric blood, the morphological state of the internals.
# The drug was injected once daily for 30 days.
# The test animals were 20 rabbits and 40 guinea pigs.
# [3] = system: nucleated blood cells; assay: Nucleated blood cells and lymphocytes in irradiated mice (4 Gy), scheme 1; assay type: in vivo; parameters: Lymphocytes (absolute) in blood: unit not given here; details: for Karyocyte Count in Blood: scheme 1, 10 μg/kg i.m.
# Method: Irradiated mice (4 Gy) received intramuscular injections of the peptide in the dose of 10 μg/kg according to 2 schemes.
# a) Scheme 1: mice received the peptide immediately after irradiation, daily. […] Blood samples were taken four hours after the last peptide injection and on the 7th, 10th, and 16th day after the irradiation. Determined were total count of nucleated blood cells (NC) and lymphocyte percentage of them; nucleated cells and the CFU-S population in femoral bone marrow were counted on the 4th, 8th, and the 14th day.
# [4] = system: karyocytes in spleen and thymus; assay: Nucleated cell counts in thymus and spleen per mg of organ weight, radiation immunodeficiency; assay type: in vivo, (CBA×C57BL)F1 mice; details: 2 Gy
# Method: Females and male (CBA×C57BL)F1 mice, aged about 2.5 months weighing about 20 g, were irradiated with gamma-rays using a "Luch-1" apparatus. Immunological activity was assessed according to Jerne (Antibody Forming Cells count--AFC). T-cell count in spleen was determined by the method of spontaneous rosette formation with sheep erythrocytes (E-FRC). The peptide was injected intramuscularly.
# Mice were irradiated in a dose of 2 Gy, the peptide was injected in the dose of 10 μg/kg according to the following scheme (to determine T-cell count by the method of spontaneous rosette formation): 1 time--an hour after the irradiation; 2 times--an hour, and a day after irradiation; 3 times--an hour, a day, and two days after the irradiation; 4 times--an hour, a day, two days and three days after the irradiation. The intact mice recieved the peptide 3 or 4 times. The control group (2 Gy) recieved injections of physiological solution according to the same schedule. On completion of the treatment course, 10 mice from each group were immunized with sheep erythrocytes (SE) and 4-5 days later AFC counts were determined in their spleens. The rest of the mice were used to find T-cell count by the method of spontaneous rosette formation. The state of the organs of immune system (spleen and thymus) in mice with radiation immunodeficiency against the background of H-Ile-Glu-Trp-OH treatment was also listed by nucleated cell counts in thymus and spleen per mg of organ weight. AFC/mg Spleen weight is presented as an average of two experiments.
# [5] = Solubility; assay type: physicochemical
# From the text: The peptide prepared using this process is a yellowish grey or white powder, soluble in water, substantially insoluble in alcohol and substantially insoluble in chloroform. It has a UV spectrum in the range of 250-300 nm with a maximum at 280±2 nm.
# [6] = Acute toxicity in guinea pigs; assay type: in vivo; details: 20 guinea pigs
# Method: (§1) To establish the safety of use of the peptides, toxicity tests were performed. Toxicity tests where performed in accordance Pharmacological Committee Russian Federation (RF) "guidelines for the pre-clinical study of general toxic activity of new pharmacological compounds". M., 1985.
# (§2) Acute toxicity was studied in 20 guinea pigs and 6 dogs. […] The drug has a wide therapeutic range.
# [7] = Clinical study: tolerance, biochemical indices, humoral status; assay type: in vivo, patients
# From the text: The clinical study of H-Ile-Glu-Trp-OH was continued in groups of patients with pronounced secondary pathological changes in their immune system. The primary task of the first stage of the investigation was to observe the preparation tolerance, to reveal toxic, allergic and other reactions, hemogram dynamics and biochemical indices. Further investigation, along with further monitoring of the major clinical and laboratory parameters, included evaluation of the immunological status of a patient before and after the immunopeptide treatment.
# Before instituting the treatment, examination was carried out including case history, clinical, laboratory and instrumental investigations. Necessary morphological investigations were performed to verify the diagnosis. There were also the results of hemogram dynamics before and after each treatment course of H-Ile-Glu-Trp-OH. After these courses the biochemical indices and urine tests were examined again. X-ray, ultrasonic and morphological examinations were repeated on indication.
# Humoral immunity was also investigated: the content of different types of immunoglobulins, protein fractions, antibodies to thyroid, and the Coombs test (the latter was performed in the case of haemolytic anaemia).
# One ml daily, intranasally, once or twice in divided doses, for 5 days. The course was repeated after a 3-week interval. To those patients who received a cytostatic mono- or polychemotherapy, H-Ile-Glu-Trp-OH was administered from the first day of the break in the cytostatic treatment.
# [8] = Acute toxicity in dogs; assay type: in vivo; details: 6 dogs
# Method: as §1, §2
substance,measurement,setting,value
H-Ile-Glu-Trp-OH,local irritating effect,[1],no local irritating effect
same,pathologic changes in the body or peritheric blood,[2],did not cause any pathologic changes
same,Survival,[3]; scheme 1 (footnote of Table 7),100%
same,Karyocyte Count in Blood,"[3]; 1 Time, Day 4",0.80 ± 0.5 × 10^3 /lmm^3
same,Karyocyte Count in Blood,"[3]; 1 Time, Day 7",3.53 ± 0.5 × 10^3 /lmm^3
same,Karyocyte Count in Blood,"[3]; 1 Time, Day 10",4.30 ± 0.3 × 10^3 /lmm^3
same,Karyocyte Count in Blood,"[3]; 1 Time, Day 16",4.49 ± 0.8 × 10^3 /lmm^3
same,Karyocyte Count in Blood,"[3]; 2 Times, Day 4",1.30 ± 0.2 × 10^3 /lmm^3
same,Karyocyte Count in Blood,"[3]; 2 Times, Day 7",3.64 ± 0.6 × 10^3 /lmm^3
same,Karyocyte Count in Blood,"[3]; 2 Times, Day 10",6.42 ± 0.7 × 10^3 /lmm^3
same,Karyocyte Count in Blood,"[3]; 2 Times, Day 16",5.96 ± 1.0 × 10^3 /lmm^3
same,Karyocyte Count in Blood,"[3]; 3 Times, Day 4",1.19 ± 0.1 × 10^3 /lmm^3
same,Karyocyte Count in Blood,"[3]; 3 Times, Day 7",5.58 ± 0.7 × 10^3 /lmm^3
same,Karyocyte Count in Blood,"[3]; 3 Times, Day 10",4.18 ± 0.8 × 10^3 /lmm^3
same,Karyocyte Count in Blood,"[3]; 3 Times, Day 16",6.32 ± 0.7 × 10^3 /lmm^3
same,Karyocyte Count in Blood,"[3]; 4 Times, Day 4",1.64 ± 0.2 × 10^3 /lmm^3
same,Karyocyte Count in Blood,"[3]; 4 Times, Day 7",4.14 ± 0.8 × 10^3 /lmm^3
same,Karyocyte Count in Blood,"[3]; 4 Times, Day 10",4.90 ± 0.7 × 10^3 /lmm^3
same,Karyocyte Count in Blood,"[3]; 4 Times, Day 16",7.32 ± 1.0 × 10^3 /lmm^3
same,Lymphocytes (absolute) in blood,"[3]; scheme 1, 1 Time, Day 4",232
same,"Lymphocytes, % in blood","[3]; scheme 1, 1 Time, Day 4",29.0 ± 2.5%
same,Lymphocytes (absolute) in blood,"[3]; scheme 1, 1 Time, Day 7",1365
same,"Lymphocytes, % in blood","[3]; scheme 1, 1 Time, Day 7",38.8 ± 3.1%
same,Lymphocytes (absolute) in blood,"[3]; scheme 1, 1 Time, Day 10",1118
same,"Lymphocytes, % in blood","[3]; scheme 1, 1 Time, Day 10",26.3 ± 2.9%
same,Lymphocytes (absolute) in blood,"[3]; scheme 1, 1 Time, Day 16",2412
same,"Lymphocytes, % in blood","[3]; scheme 1, 1 Time, Day 16",53.6 ± 6.0%
same,Lymphocytes (absolute) in blood,"[3]; scheme 1, 2 Times, Day 4",468
same,"Lymphocytes, % in blood","[3]; scheme 1, 2 Times, Day 4",36.0 ± 1.7%
same,Lymphocytes (absolute) in blood,"[3]; scheme 1, 2 Times, Day 7",1260
same,"Lymphocytes, % in blood","[3]; scheme 1, 2 Times, Day 7",34.8 ± 2.1%
same,Lymphocytes (absolute) in blood,"[3]; scheme 1, 2 Times, Day 10",1664
same,"Lymphocytes, % in blood","[3]; scheme 1, 2 Times, Day 10",25.5 ± 2.7%
same,Lymphocytes (absolute) in blood,"[3]; scheme 1, 2 Times, Day 16",2682
same,"Lymphocytes, % in blood","[3]; scheme 1, 2 Times, Day 16",44.8 ± 6.2%
same,Lymphocytes (absolute) in blood,"[3]; scheme 1, 3 Times, Day 4",432
same,"Lymphocytes, % in blood","[3]; scheme 1, 3 Times, Day 4",36.0 ± 1.3%
same,Lymphocytes (absolute) in blood,"[3]; scheme 1, 3 Times, Day 7",1512
same,"Lymphocytes, % in blood","[3]; scheme 1, 3 Times, Day 7",27.1 ± 1.9%
same,Lymphocytes (absolute) in blood,"[3]; scheme 1, 3 Times, Day 10",1233
same,"Lymphocytes, % in blood","[3]; scheme 1, 3 Times, Day 10",29.5 ± 3.6%
same,Lymphocytes (absolute) in blood,"[3]; scheme 1, 3 Times, Day 16",2853
same,"Lymphocytes, % in blood","[3]; scheme 1, 3 Times, Day 16",44.8 ± 4.80%
same,Lymphocytes (absolute) in blood,"[3]; scheme 1, 4 Times, Day 4",639
same,"Lymphocytes, % in blood","[3]; scheme 1, 4 Times, Day 4",39.0 ± 2.9%
same,Lymphocytes (absolute) in blood,"[3]; scheme 1, 4 Times, Day 7",1025
same,"Lymphocytes, % in blood","[3]; scheme 1, 4 Times, Day 7",25.6 ± 3.7%
same,Lymphocytes (absolute) in blood,"[3]; scheme 1, 4 Times, Day 10",1475
same,"Lymphocytes, % in blood","[3]; scheme 1, 4 Times, Day 10",30.7 ± 6.5%
same,Lymphocytes (absolute) in blood,"[3]; scheme 1, 4 Times, Day 16",2847
same,"Lymphocytes, % in blood","[3]; scheme 1, 4 Times, Day 16",38.5 ± 1.40%
same,"Karyocyte Count, Spleen",[4]; 1 Injection,1120 ± 73 10^3 /mg
same,"Karyocyte Count, Thymus",[4]; 1 Injection,1860 ± 200 10^3 /mg
same,"Karyocyte Count, Spleen",[4]; 2 Injection,890 ± 80 10^3 /mg
same,"Karyocyte Count, Thymus",[4]; 2 Injection,1840 ± 380 10^3 /mg
same,"Karyocyte Count, Spleen",[4]; 3 Injection,980 ± 80 10^3 /mg
same,"Karyocyte Count, Thymus",[4]; 3 Injection,2590 ± 400 10^3 /mg
same,"Karyocyte Count, Spleen",[4]; 4 Injection,1160 ± 100 10^3 /mg
same,"Karyocyte Count, Thymus",[4]; 4 Injection,2480 ± 280 10^3 /mg
same,Solubility,[5]; alcohol,moderately soluble
same,Solubility,[5]; chloroform,insoluble
same,Solubility,[5]; water,readily soluble
same,acute toxicity,[6],No toxic effects were observed
same,protein fractions and immunoglobulins in patients' sera,[7]; 1-1.5 months after the treatment,No dynamics of these indices was found
same,dynamics of biochemical indices,[7]; before and after 1-3 treatment courses,revealed no changes
same,AP dynamics and ECG,"[7]; human, in vivo",failed to reveal any changes
same,adverse reactions,"[7]; prolonged administration (5-6 courses), intranasally",no toxic reactions
same,acute toxicity,[8],No toxic effects were observed
